Data published in US20240287138A1, “CYCLIC PEPTIDES FOR INHIBITING TNF RECEPTOR 1 ACTIVITY” (Merck Sharp & Dohme LLC, priority 2023, published 2024).
pIC50, pKd: −log10 of the molar value. Read-outs that look alike come from different tables or passages of the source. Numbered stars: 1 amine (or outer) side, 2 acyl side, 3 side chain; on linkers, the order of the positions; unused ones are H or OH. Bridge positions count the residues as written; N and C are the ends. Square brackets hold non-standard residues; d marks the D form. Peptide text beside a SMILES is read from it. * marks the point of attachment. Trp(βS-Me,7-OMe) = COc1cccc2c([C@H](C)[C@H](N)C(=O)O)c[nH]c12; dPro(trans-4-NMe3+) = C[N+](C)(C)[C@@H]1CN[C@@H](C(=O)O)C1; Phe(4-SO2NH2) = N[C@@H](Cc1ccc(S(N)(=O)=O)cc1)C(=O)O; Trp(7-CN) = N#Cc1cccc2c(C[C@H](N)C(=O)O)c[nH]c12; Trp(7-Cl) = N[C@@H](Cc1c[nH]c2c(Cl)cccc12)C(=O)O; Phe(4-CONH2) = NC(=O)c1ccc(C[C@H](N)C(=O)O)cc1; Phe(4-COOH) = N[C@@H](Cc1ccc(C(=O)O)cc1)C(=O)O; 4Pal(3S-Me) = C[C@@H](c1ccncc1)[C@H](N)C(=O)O; Trp(7-aza) = N[C@@H](Cc1c[nH]c2ncccc12)C(=O)O; Phe(4-CH2NH2) = NCc1ccc(C[C@H](N)C(=O)O)cc1; dPro(trans-4-F) = O=C(O)[C@H]1C[C@H](F)CN1; Pip(5R-OH) = O=C(O)[C@@H]1CC[C@@H](O)CN1; αMeW = C[C@](N)(Cc1c[nH]c2ccccc12)C(=O)O; X1 = O=C([C@@H]1CC[C@H](N[*:1])C1)[*:2]; X35 = CC(C)(N)[C@H](N[*:1])C(=O)[*:2]; Pip(4-aza) = O=C(O)[C@@H]1CNCCN1; 4Pal = N[C@@H](Cc1ccncc1)C(=O)O; NMeE = CN[C@@H](CCC(=O)O)C(=O)O; dHyp = O=C(O)[C@H]1C[C@H](O)CN1; Aad = N[C@@H](CCCC(=O)O)C(=O)O; X36 = C[C@@H](C(=O)[*:1])[*:2]; X39 = C[C@H](C(=O)[*:1])[*:2]; Ahp(2) = CCCCC[C@H](N)C(=O)O; αMeS = C[C@](N)(CO)C(=O)O; Carboxymethyl = O=C(O)C*; Nle = CCCC[C@H](N)C(=O)O; Dab = NCC[C@H](N)C(=O)O; Sar = CNCC(=O)O

Tests used:
[1] = target: T1, human soluble TNFR1 (sTNFR1) (Homo sapiens, UniProt P19438); assay: Human sTNFR1-peptide displacement assay (LanthaScreen Eu TR-FRET binding assay)
T1 construct: made in house; host or cells: Sf21 (baculovirus)
T1 sequence (P19438 with tags, fused parts or gaps): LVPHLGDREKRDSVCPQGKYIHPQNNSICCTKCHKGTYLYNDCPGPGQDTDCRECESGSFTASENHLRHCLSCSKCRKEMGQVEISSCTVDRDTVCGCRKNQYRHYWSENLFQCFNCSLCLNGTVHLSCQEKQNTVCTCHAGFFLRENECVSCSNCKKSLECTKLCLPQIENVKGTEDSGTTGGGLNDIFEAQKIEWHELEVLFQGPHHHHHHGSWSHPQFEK
How it was run: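 Readout is the 665/615 nm TR-FRET ratio (Eu anti-His donor, streptavidin-Alexa647 acceptor), normalized to DMSO and saturating displacer, fit by Morrison-based five-parameter logistic for Kd^app. His-tagged sTNFR1 (1-211) prebound to 100 nM biotinylated peptide SEQ ID NO.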

[2] = target: T2, TNFα-induced NF-κB signal transduction pathway (TNFR1 signaling) in THP-1 cells (Homo sapiens, UniProt P19438); assay: THP-1 Lucia NF-κB reporter cell assay, inhibition of TNFα-induced NF-κB signaling; assay type: cell-based; conditions: THP-1 NF-κB Lucia reporter cells, 10 ng/mL TNFα, 16-18 h, secreted luciferase, read-out: THP-1 IC50
T2 sequence (P19438 30-455): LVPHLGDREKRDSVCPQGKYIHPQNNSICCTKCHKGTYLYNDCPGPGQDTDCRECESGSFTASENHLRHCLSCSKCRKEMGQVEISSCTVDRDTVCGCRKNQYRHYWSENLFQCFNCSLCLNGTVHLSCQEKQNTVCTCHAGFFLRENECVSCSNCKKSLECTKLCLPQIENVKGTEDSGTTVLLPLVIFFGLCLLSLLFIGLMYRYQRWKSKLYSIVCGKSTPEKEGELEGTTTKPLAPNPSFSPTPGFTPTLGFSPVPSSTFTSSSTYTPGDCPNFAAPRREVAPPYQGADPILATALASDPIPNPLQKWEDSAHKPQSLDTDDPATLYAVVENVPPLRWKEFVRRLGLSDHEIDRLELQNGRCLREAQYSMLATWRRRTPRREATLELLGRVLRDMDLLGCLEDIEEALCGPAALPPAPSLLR
How it was run: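 Read-out: secreted Lucia luciferase luminescence (QUANTI-Luc) from supernatant after 16-18 h, 37 °C, 10 ng/mL rhTNFα. Peptide pretreatment 1 h at 37 °C; 20,000 cells/well, selection antibiotics omitted. IC50 via 4-parameter logistic model against min/max controls.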

[3] = displacement of biotinylated peptide SEQ ID NO. 1 from sTNFR1, 20 point titration, 5-parameter fit based on Morrison equation (tight binding), read-out: TR-FRET Kd^app

| Structure (SMILES) | pKd [1, 3] | pIC50 ([1]; displacement of biotinylated peptide SEQ ID NO. 1 from sTNFR1, weaker binders, 10 pts titration, 4-parameter logistic model, read-out: TR-FRET, IC50) | pIC50 [2] | pIC50 [1] | pKd [1] | pIC50 ([2]; listed as 284) |
| --- | --- | --- | --- | --- | --- | --- |
| CCCC[C@@H]1NC(=O)[C@@H](C)SC[C@@H](C(N)=O)NC(=O)[C@H]([C@@H](C)c2c[nH]c3c(OC)cccc23)NC(=O)CN(C)C(=O)[C@H](Cc2ccc(O)cc2)NC(=O)[C@H](Cc2ccc(C(N)=O)cc2)NC(=O)[C@](C)(CO)NC(=O)[C@H](Cc2c[nH]c3c(Cl)cccc23)NC(=O)[C@H](Cc2ccncc2)NC(=O)[C@H](CC(N)=O)NC(=O)[C@H](CCC(=O)O)N(C)C(=O)[C@H](Cc2c[nH]c3ncccc23)NC(=O)[C@H](CO)NC(=O)[C@H](Cc2ccc(CN)cc2)NC1=O [SEQ ID NO. 250] ([Nle][Phe(4-CH2NH2)]S[Trp(7-aza)][NMeE]N[4Pal][Trp(7-Cl)][αMeS][Phe(4-CONH2)]Y[Sar][Trp(βS-Me,7-OMe)]C-NH2; linker N-14 via X39) | 9.77 | 9.57 | 8.62 |  |  |  |
| CCCC[C@@H]1NC(=O)CSC[C@@H](C(N)=O)NC(=O)[C@H]([C@@H](C)c2c[nH]c3c(OC)cccc23)NC(=O)CN(C)C(=O)[C@H](Cc2ccc(C(=O)O)cc2)NC(=O)[C@H](Cc2ccc(C(=O)O)cc2)NC(=O)[C@](C)(CO)NC(=O)[C@H](Cc2c[nH]c3c(Cl)cccc23)NC(=O)[C@H](Cc2ccncc2)NC(=O)[C@H](CC(N)=O)NC(=O)[C@H](CCC(=O)O)N(C)C(=O)[C@H](Cc2c[nH]c3ccccc23)NC(=O)[C@@H]2CNCCN2C(=O)[C@H](Cc2ccncc2)NC1=O [SEQ ID NO. 251] ({CH2CO}-[Nle][4Pal][Pip(4-aza)]W[NMeE]N[4Pal][Trp(7-Cl)][αMeS][Phe(4-COOH)][Phe(4-COOH)][Sar][Trp(βS-Me,7-OMe)]C-NH2; thioether N-14) |  |  | 8.57 | 9.30 | 8.93 |  |
| CCCC[C@@H]1NC(=O)CSC[C@@H](C(N)=O)NC(=O)[C@H]([C@@H](C)c2c[nH]c3c(OC)cccc23)NC(=O)CN(C)C(=O)[C@H](Cc2ccc(O)cc2)NC(=O)[C@H](Cc2ccc(C(=O)O)cc2)NC(=O)[C@](C)(CO)NC(=O)[C@H](Cc2c[nH]c3c(Cl)cccc23)NC(=O)[C@H]([C@@H](C)c2ccncc2)NC(=O)[C@H](CC(N)=O)NC(=O)[C@H](CCC(=O)O)N(C)C(=O)[C@H](Cc2c[nH]c3ccccc23)NC(=O)[C@H](CO)NC(=O)[C@H](Cc2ccc(CN)cc2)NC1=O [SEQ ID NO. 252] ({CH2CO}-[Nle][Phe(4-CH2NH2)]SW[NMeE]N[4Pal(3S-Me)][Trp(7-Cl)][αMeS][Phe(4-COOH)]Y[Sar][Trp(βS-Me,7-OMe)]C-NH2; thioether N-14) |  |  | 7.63 | 8.62 |  |  |
| CCCC[C@@H]1NC(=O)[C@@H]2CC[C@@H](C2)NC(=O)[C@H]([C@@H](C)c2c[nH]c3c(OC)cccc23)NC(=O)CN(C)C(=O)[C@H](Cc2ccc(OCC(=O)O)cc2)NC(=O)[C@H](Cc2ccc(S(N)(=O)=O)cc2)NC(=O)[C@](C)(CO)NC(=O)[C@H](Cc2c[nH]c3c(C#N)cccc23)NC(=O)[C@H](Cc2ccc(OCC(=O)O)cc2)NC(=O)[C@H](CC(N)=O)NC(=O)[C@H]2C[C@H]([N+](C)(C)C)CN2C(=O)[C@H](Cc2c[nH]c3ncccc23)NC(=O)[C@@H]2CC[C@@H](O)CN2C(=O)[C@H](Cc2ccncc2)NC1=O [SEQ ID NO. 257] (cyclo([4Pal][Pip(5R-OH)][Trp(7-aza)][dPro(trans-4-NMe3+)]NY(Carboxymethyl)[Trp(7-CN)][αMeS][Phe(4-SO2NH2)]Y(Carboxymethyl)[Sar][Trp(βS-Me,7-OMe)][X1][Nle])) | 10.10 |  | 9.40 |  |  |  |
| CCCC[C@@H]1NC(=O)[C@H](C)SC[C@@H](C(N)=O)NC(=O)[C@H]([C@@H](C)c2c[nH]c3c(OC)cccc23)NC(=O)CN(C)C(=O)[C@H](Cc2ccc(O)cc2)NC(=O)[C@H](Cc2ccc(C(N)=O)cc2)NC(=O)[C@](C)(CO)NC(=O)[C@H](Cc2c[nH]c3c(Cl)cccc23)NC(=O)[C@H](Cc2ccncc2)NC(=O)[C@H](CC(N)=O)NC(=O)[C@H](CCC(=O)O)N(C)C(=O)[C@H](Cc2c[nH]c3ncccc23)NC(=O)[C@H](C(C)(C)N)NC(=O)[C@H](Cc2ccncc2)NC1=O [SEQ ID NO. 273] ([Nle][4Pal][X35][Trp(7-aza)][NMeE]N[4Pal][Trp(7-Cl)][αMeS][Phe(4-CONH2)]Y[Sar][Trp(βS-Me,7-OMe)]C-NH2; linker N-14 via X36) |  |  | 8.39 | 9.22 | 9.48 |  |
| CCCC[C@@H]1NC(=O)CSC[C@@H](C(N)=O)NC(=O)[C@](C)(Cc2c[nH]c3ccccc23)NC(=O)CN(C)C(=O)[C@H](Cc2ccc(O)cc2)NC(=O)[C@H](Cc2ccc(C(=O)O)cc2)NC(=O)[C@](C)(CO)NC(=O)[C@H](Cc2c[nH]c3c(Cl)cccc23)NC(=O)[C@H](Cc2ccncc2)NC(=O)[C@H](CC(N)=O)NC(=O)[C@H](CCC(=O)O)N(C)C(=O)[C@H](Cc2c[nH]c3ncccc23)NC(=O)[C@H](CCN)NC(=O)[C@H](Cc2ccncc2)NC1=O [SEQ ID NO. 277] ({CH2CO}-[Nle][4Pal][Dab][Trp(7-aza)][NMeE]N[4Pal][Trp(7-Cl)][αMeS][Phe(4-COOH)]Y[Sar][αMeW]C-NH2; thioether N-14) |  |  | 8.52 | 8.95 |  |  |
| CCCC[C@@H]1NC(=O)CSC[C@@H](C(N)=O)NC(=O)[C@H]([C@@H](C)c2c[nH]c3c(OC)cccc23)NC(=O)CN(C)C(=O)[C@H](Cc2ccc(O)cc2)NC(=O)[C@H](Cc2ccc(C(=O)O)cc2)NC(=O)[C@](C)(CO)NC(=O)[C@H](Cc2c[nH]c3c(Cl)cccc23)NC(=O)[C@H](Cc2ccncc2)NC(=O)[C@H](CC(N)=O)NC(=O)[C@H]2C[C@H](F)CN2C(=O)[C@H](Cc2c[nH]c3ccccc23)NC(=O)[C@@H]2CNCCN2C(=O)[C@H](Cc2ccncc2)NC1=O [SEQ ID NO. 279] ({CH2CO}-[Nle][4Pal][Pip(4-aza)]W[dPro(trans-4-F)]N[4Pal][Trp(7-Cl)][αMeS][Phe(4-COOH)]Y[Sar][Trp(βS-Me,7-OMe)]C-NH2; thioether N-14) |  |  | 8.85 |  | 9.42 |  |
| CCCCC[C@@H]1NC(=O)[C@@H]2CC[C@@H](C2)NC(=O)[C@H]([C@@H](C)c2c[nH]c3c(OC)cccc23)NC(=O)CN(C)C(=O)[C@H](Cc2ccc(C(N)=O)cc2)NC(=O)[C@H](Cc2ccc(C(N)=O)cc2)NC(=O)[C@](C)(CO)NC(=O)[C@H](Cc2c[nH]c3c(C#N)cccc23)NC(=O)[C@H](Cc2ccc(C(=O)O)cc2)NC(=O)[C@H](CC(N)=O)NC(=O)[C@H]2C[C@H](O)CN2C(=O)[C@H](Cc2c[nH]c3ccccc23)NC(=O)[C@H](CCCC(=O)O)NC(=O)[C@H]([C@@H](C)c2ccncc2)NC1=O [SEQ ID NO. 282] (cyclo([Aad]W[dHyp]N[Phe(4-COOH)][Trp(7-CN)][αMeS][Phe(4-CONH2)][Phe(4-CONH2)][Sar][Trp(βS-Me,7-OMe)][X1][Ahp(2)][4Pal(3S-Me)])) |  |  | 9.05 |  | 9.89 |  |
| CCCC[C@@H]1NC(=O)[C@@H]2CC[C@@H](C2)NC(=O)[C@H]([C@@H](C)c2c[nH]c3c(OC)cccc23)NC(=O)CN(C)C(=O)[C@H](Cc2ccc(C(=O)O)cc2)NC(=O)[C@H](Cc2ccc(C(N)=O)cc2)NC(=O)[C@](C)(CO)NC(=O)[C@H](Cc2c[nH]c3c(C#N)cccc23)NC(=O)[C@H](Cc2ccc(C(=O)O)cc2)NC(=O)[C@H](CC(N)=O)NC(=O)[C@H]2C[C@H](OCC(=O)O)CN2C(=O)[C@H](Cc2c[nH]c3ncccc23)NC(=O)[C@@H]2CC[C@@H](O)CN2C(=O)[C@H](Cc2ccncc2)NC1=O [SEQ ID NO. 284] (cyclo([4Pal][Pip(5R-OH)][Trp(7-aza)][dHyp](Carboxymethyl)N[Phe(4-COOH)][Trp(7-CN)][αMeS][Phe(4-CONH2)][Phe(4-COOH)][Sar][Trp(βS-Me,7-OMe)][X1][Nle])) |  |  |  |  | 10.05 | 9.10 |
